Source: PubChem BioAssay (NCI)
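48-hour exposure; five concentrations; linearly interpolated endpoints. TGI: total growth inhibition.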

Experiments:
Assay in all cases: NCI tumour cell line growth inhibition, 48 h
[1] = tested on: 786-0 renal
[2] = tested on: A498 renal
[3] = tested on: A549 NSCLC
[4] = tested on: ACHN renal
[5] = tested on: BT-549 breast
[6] = tested on: CAKI-1 renal
[7] = tested on: CCRF-CEM leukemia
[8] = tested on: COLO 205 colon
[9] = tested on: DU-145 prostate
[10] = tested on: EKVX NSCLC
[11] = tested on: HCC-2998 colon
[12] = tested on: HCT-116 colon
[13] = tested on: HCT-15 colon
[14] = tested on: HL-60(TB) leukemia
[15] = tested on: HOP-62 NSCLC
[16] = tested on: HOP-92 NSCLC
[17] = tested on: HS 578T breast
[18] = tested on: HT29 colon
[19] = tested on: IGROV1 ovarian
[20] = tested on: K-562 leukemia
[21] = tested on: KM12 colon
[22] = tested on: LOX IMVI melanoma
[23] = tested on: M14 melanoma
[24] = tested on: MALME-3M melanoma
[25] = tested on: MDA-MB-231 breast
[26] = tested on: MDA-MB-435
[27] = tested on: MDA-N
[28] = tested on: MOLT-4 leukemia
[29] = tested on: NCI-H226 lung
[30] = tested on: NCI-H23 lung
[31] = tested on: NCI-H460 lung
[32] = tested on: NCI-H522 lung
[33] = tested on: NCI/ADR-RES ovarian
[34] = tested on: OVCAR-3 ovarian
[35] = tested on: OVCAR-5 ovarian
[36] = tested on: OVCAR-8 ovarian
[37] = tested on: PC-3 prostate
[38] = tested on: RPMI-8226 leukemia
[39] = tested on: RXF 393 renal
[40] = tested on: SF-268 CNS
[41] = tested on: SF-295 CNS
[42] = tested on: SF-539 CNS
[43] = tested on: SK-MEL-2 melanoma
[44] = tested on: SK-MEL-28 melanoma
[45] = tested on: SK-MEL-5 melanoma
[46] = tested on: SK-OV-3 ovarian
[47] = tested on: SN12C renal
[48] = tested on: SNB-19 CNS
[49] = tested on: SNB-75 CNS
[50] = tested on: SR leukemia
[51] = tested on: SW-620 colon
[52] = tested on: T-47D breast
[53] = tested on: TK-10 renal
[54] = tested on: U251 CNS
[55] = tested on: UACC-257 melanoma
[56] = tested on: UACC-62 melanoma
[57] = tested on: UO-31 renal

Measured: TGI

O=C(O)c1c(CC(Cc2ccc3c(c2)CCCC3)C(=O)O)ccc2c1CCCC2 (configuration not stated)
> 100 µM: all assays above
